# Measurements as given in patent US10746738B2, “Claudin-1 peptide reagents and methods” (THE REGENTS OF THE UNIVERSITY OF MICHIGAN, priority 2015, dated 2020).
# Ends that are not written are not given here. Cy5.5 = near infrared dye label
# Experiments:
# [1] = molecular target: T1, claudin-1 (CLDN1) (Homo sapiens, UniProt O95832); assay: siRNA knockdown of CLDN1 expression, peptide and antibody binding to SW620 cells; format: cell-based
# T1 construct: endogenous in cells; host or cells: SW620 human colorectal adenocarcinoma cells
# T1 sequence (O95832 1-211): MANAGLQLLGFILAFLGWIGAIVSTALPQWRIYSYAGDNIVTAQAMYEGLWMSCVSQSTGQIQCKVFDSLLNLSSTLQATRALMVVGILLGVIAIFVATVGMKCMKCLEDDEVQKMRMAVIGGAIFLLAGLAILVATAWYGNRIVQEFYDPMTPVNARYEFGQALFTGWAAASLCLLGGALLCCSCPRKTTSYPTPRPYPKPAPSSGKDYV
# Description: CLDN1 expression was knocked down using Dharmacon On-Target Plus SMARTpool Human CLDN1 siRNA (Thermo Scientific) according to the manufacturer's protocol. SW620 cells were plated overnight on coverslips in a 12-well plate at 0.2×10^6 cells/mL. The following day, cells were transfected with 3 μL DharmaFECT1 and either 25 nM CLDN1 or control siRNA. After 72 h, transfected cells were analyzed for CLDN1 expression through immunocytochemistry, a peptide binding study, or a Western blot of the cell lysate. For the immunocytochemistry experiment, cells were fixed with ice-cold methanol for 20 minutes at −20° C., blocked for 1 h at RT with PBS+2% BSA, stained with anti-human CLDN1 antibody at 5 μg/mL for 1 h at RT, then with goat anti-Rabbit AF488 (1:500) for 1 h at RT before being mounted on slides with DAPI with Prolong Gold. siRNA-transfected cells were also stained with 5 μM RTS-Cy5.5 or SPT-Cy5.5 for 30 minutes at 4° C., fixed with 4% PFA for 10 minutes at RT, then mounted on slides. Simultaneously, transfected cells were lysed with RIPA buffer containing Roche Mini-Complete EDTA-free Protease Inhibitor for 10 minutes on ice, collected and spun at 20,000×g for 10 minutes at 4° C. Supernatant was saved, total protein concentration quantified via a BCA assay, and 10 ug protein of each sample run on a Novex 4-20% 1.5 mm protein gel before transferring to a PVDF membrane. The membrane was blocked with PBST+5% non-fat milk for 1 h at 4° C., stained with either rabbit anti-CLDN1 Ab or mouse anti-tubulin Ab at 4° C. overnight, then with anti-rabbit HRP (1:500, for CLDN1) or anti-mouse HRP (1:500, for tubulin) for 1 h at RT before developing.
# The specificity of peptide binding was validated on siRNA knockdown. […] These cells were transfected with siRNA to knockdown cell surface expression of claudin-1. […] The fluorescence intensities (mean±std) are shown (FIG. 2H). […] Given the experimental design and mean-squared-errors shown in FIG. 2H, with triplicate slides we have 98% power to obtain P<0.01 for interactions that show a 3-fold difference of differences.
# [2] = tested on: colonic dysplasia; assay: In vivo fluorescence endoscopy of colon in CPC;Apc mouse; conditions: for fluorescence signal from dysplasia on endoscopy: CPC;Apc mouse colon
# Description: A genetically engineered mouse model (Cpc;Apc) that spontaneously forms adenomatous polyps in the colon was used for this study and handled according to Institutional Guidelines. The colons of anesthetized mice were first cleaned with water before imaging with a small animal endoscope (Karl Storz Veterinary Endoscope) using the white light channel to locate polyps by identifying anatomic landmarks and the distance of the endoscope tip from the anus. […] Fluorescent and reflectance images were then collected with the same endoscope set to the appropriate channels. Once in vivo imaging was complete, four of the mice used in the study were euthanized and colons harvested. Polyps and flat lesions detected during fluorescence imaging were located, removed, and processed for histology (H&E).
# These mice are genetically-engineered to spontaneously develop colonic dysplasia, and the colonic lesions that develop are molecularly and histologically similar to that seen in human disease, making these mice a good model for monitoring cancer development. Because the extra-cellular domain of claudin-1 is completely homologous between human and mouse, peptides developed for human targets can be directly used in mouse imaging experiments. […] CPC;Apc mice were imaged at ˜3 months of age when they first begin to develop dysplasia. […] After imaging is completed, mice were euthanized, and the colons were resected. Based on the location of dysplastic lesions determined using fluorescence images collected with endoscopy, a pathologist measured the depth of dysplasia on histology, as shown by the dashed arrow in FIG. 7E. […] Images are obtained from mice over at least three sessions separated by 1 week to monitor for cancer progression.
# [3] = tested on: T84 monolayers; assay: Transepithelial electrical resistance (TEER) and tight junction immunofluorescence; format: cell-based, human
# Description: T84 human colon carcinoma cells were grown in a 1:1 mixture of DMEM and Ham's F-12 culture medium supplemented with 5% FBS. To establish polarized monolayer, the cells were plated on transwell permeable polyester supports (1.12 cm^2, pore size 3 μm, Costar) until they reached confluence after ˜3-4 days, as determined by an increase in TEER.43 The cells were continually grown on transwell supports until the TEER reached ˜2000 Ω-cm^2. […] TEER was then measured at 6, 12 and 24 hours. The cells were fixed with 4% PFA for 12 min. After brief washing, 1% SDS in PBS was used to permeabilize the cells. These procedures were followed by 3% goat serum in PBS blocking for 30 min. Mouse anti-zonula occludens-1 (anti-ZO-1) (1:250, Life Technologies) and rabbit anti-claudin-1 (1:200, Life Technologies) antibodies were diluted in block buffer and incubated in humidity box overnight at 4° C. and fluorescent secondary antibodies were diluted to 1:1000 and incubated for 1 hour at RT. All images were obtained using Nikon A1 confocal microscope (MIL, University of Michigan).
# We evaluated the effect of peptide binding on tight junction function using a polarized monolayer of T84 cells plated on transwell supports.
# [4] = tested on: SW620 cells; assay: Confocal signal and photostability of Cy5- versus FITC-labeled peptide on cells; format: cell-based, human; conditions: for mean (±std) fluorescence intensity: 10 μM, 4° C., 1 hour, n=6 cells
# Description: We incubated pep*-Cy5 (RTS*-Cy5) and pep*-FITC ([…]) (10 μM) (FIG. 4A) with human colon adenocarcinoma (SW620) cells that over-express Claudin-1 at 4° C. for 1 hour. A supercontinuum “white light” laser provided continuous excitation at 1.5 mW for both λex=647 and 488 nm. Confocal images (Leica TCS SP5 Microsystems) were collected using Cy5 and FITC filters every 2 min. At time 0 min, peptide (RTS*-Cy5) binding to the cell surface (arrow) is shown, scale bar 10 μm (FIG. 4B). The mean (±std) fluorescence intensities for the Cy5 and FITC-labeled peptides, measured from n=6 cells, were 58.4±3.7 and 3.1±0.6 A.U. respectively, resulting in ˜20-fold increase in signal using the NIR fluorophore. We also found a 8.5% reduction in fluorescence intensity for pep*-Cy5 in comparison to 32% for pep*-FITC at 12 min, resulting ˜4-fold improvement in photostability (FIG. 4C).
# [5] = tested on: human colonic tissues; assay: Ex vivo staining of human colonic tissue sections
# Description: Human colon tissue was obtained through consenting patents at the University of Michigan Hospital. Tissue was frozen in OCT and sectioned 10 μm thick using a Cryostat. The sections were thawed before staining with 10 μM RTS*-Cy5 for 15 minutes at RT. Tissues were then washed with PBS, fixed with 4% PFA for 10 min at RT, and counterstained with DAPI with Prolong Gold. Fluorescence was imaged and quantified as outlined above.
# Specimens of normal colonic mucosa, adenoma, and adenocarcinoma from the right side (proximal) of the colon were obtained from routine surveillance colonoscopy and surgically removed by endoscopic mucosal resection. The tissues were frozen in OCT (Sakura Finetek), cut in 10 μm sections, and incubated with pep*-Cy5 (5 μM) in 1×PBS for 15 minutes at RT. The sections were washed 3× with PBS. Confocal fluorescence images were collected from these sections with DAPI, FITC and Cy5 filter sets (Leica TCS SP5 Microsystems).
# The mean fluorescence intensities (±SEM) from binding of pep*-Cy5 were measured for normal colonic mucosa (n=4, 7±2 AU), adenoma (n=6, 26±4 AU) and adenocarcinoma (n=5, 31±4 AU), P<0.001, unpaired t-test (FIG. 6, scale bar 500 μm). […] We found pep*-Cy5 and anti-claudin-1 mAb to stain colonic adenomas and adenocarcinomas in 11/12 (92%) and 10/10 (100%) sections, respectively.
# [6] = tested on: human colonic adenocarcinoma cells (SW620, SW480, HT29, HCT116); assay: Cell binding assay on adenocarcinoma cell panel and co-localization with anti-claudin-1 antibody; format: cell-based
# Description: SW620, SW480, and HT29 cells were plated at 0.5×10^6 cells/mL on coverslips on 12-well plates. The following day, the cells were treated with either 10 μM either RTS*-Cy5.5 or SPT*-Cy5.5 for 1 h at 4° C., fixed with 4% PFA for 10 minutes at RT, then counterstained with DAPI with Prolong Gold. Fluorescent images were collected and analyzed as detailed above. Statistical analysis was performed using a one-way ANOVA analysis on GraphPad Prism.
# The cells were incubated with the peptide (10 μM) at 4° C. for 1 hour, washed 3× with PBS, fixed with 4% PFA, and mounted with ProLong Gold containing DAPI (Invitrogen). The mean (±std) fluorescence intensities were quantified using custom Matlab software (FIG. 5F). Levels of claudin-1 expression from cytosol (C) and membrane (M) of cells are shown on western blot (FIG. 5G). The cells were then incubated with 1:50 dilution of primary anti-claudin-1 rabbit mAb (4267, Invitrogen) for 1 hour at 4° C., and washed 3× with PBS at RT. The cells were further incubated with 1:500 dilution of […] labeled with Alexa Fluor 488 (Invitrogen) for 1 hour at RT. Co-localization of peptide (red) and antibody (green) binding to SW620 cells can be appreciated on the overlay fluorescence image (FIG. 5H). A Pearson's correlation of ρ=0.56 was calculated using custom Matlab software.
# [7] = at 12 min of continuous excitation
substance,measurement,setting,value
SPT*-Cy5.5: control scrambled sequence SPTPSSR labeled with Cy5.5 via the GGGSK linker (SPTPSSRGGGSK-{Cy5.5}) [reference compound],signal for siCL versus siCLDN1 cells,"[1]; SW620 cells, control siRNA versus CLDN1 siRNA, 3 replicate slides",0.80 fold-change
same,binding to the surface of SW620 cells,[1]; confocal microscopy,minimal binding
same,fluorescence signal from dysplasia on endoscopy,[2],minimal signal
SPTPSSR [SPT*],trans-epithelial electrical resistance (TEER),"[3]; 5 μM peptide, up to 24 hours",high
same,effect on tight junction function and ZO-1 distribution,[3]; 24 hours after peptide incubation,neither peptide alters tight junction function or ZO-1 distribution
same,fluorescence signal from dysplasia on endoscopy,[2],minimal signal
same,T/B ratio (mean±SD),"[2]; n=10 dysplasias, topical 100 μM, 5 minutes",1.19±0.23
pep*-Cy5: RTSPSSR labeled at the C-terminus with Cy5 via a GGGSK linker,mean (±std) fluorescence intensity,[4],58.4±3.7 A.U.
same,increase in signal using Cy5 label versus FITC,[4]; SW620 cells,~20 fold
same,improvement in photostability compared to FITC-labeled peptide,[4]; [7],~4 fold
same,reduction in fluorescence intensity,[4]; [7],8.5%
same,mean fluorescence intensity (±SEM),"[5]; adenocarcinoma, n=5",31±4 AU
same,sections stained,"[5]; adenocarcinomas, 10/10 sections",100%
same,mean fluorescence intensity (±SEM),"[5]; adenoma, n=6",26±4 AU
same,sections stained,"[5]; colonic adenomas, 11/12 sections",92%
same,mean fluorescence intensity (±SEM),"[5]; normal colonic mucosa, n=4",7±2 AU
same,binding to cell surface,"[6]; 10 μM, 4° C., 1 hour, control tested on SW620 cells",specific binding
same,"Pearson's correlation ρ, co-localization with anti-claudin-1 antibody",[6]; SW620 cells,0.56
pep*-FITC: RTSPSSR labeled at the C-terminus with FITC via a GGGSK linker,mean (±std) fluorescence intensity,[4],3.1±0.6 A.U.
same,reduction in fluorescence intensity,[4]; [7],32%
